Tests used:
[1] = molecular target: Myeloid Cell Leukemia 1(Mcl-1) (Homo sapiens, UniProt Q07820); assay: Terbium labeled Mcl-1 HTRF binding assay with Cy5-labeled BIM BH3 peptide; settings: displacement of Cy5 Bim BH3 peptide; Ki=IC50/(1+[L]/Kd), [L]=8 nM, Kd=10 nM; 60 minutes at room temperature; read-out: Tb-MCL1 Ki
Description: Terbium labeled Myeloid Cell Leukemia 1(Mcl-1) homogeneous time-resolved fluorescence (HTRF) binding assay utilizing the BIM BH3 peptide (H2N—(C/Cy5Mal) WIAQELRRIGDEFN-OH) as the binding partner for Mcl-1.
This assay evaluated inhibition of the BH3 domain: Mcl-1 interaction by measuring the displacement of Cy5-labeled BIM BH3 peptide (H2N—(C/Cy5Mal) WIAQELRRIGDEFN-OH) in the HTRF assay format.
The following assay and stock buffers were prepared for use in the assay: (a) Stock buffer: 10 mM Tris-HCl, pH=7.5+150 mM NaCl, filtered, sterilized, and stored at 4° C.; and (b) 1X assay buffer, where the following ingredients were added fresh to stock buffer: 2 mM dithiothreitol (DTT), 0.0025% Tween-20, 0.1 mg/mL bovine serum albumin (BSA). The 1X Tb-Mcl-1+Cy5 Bim peptide solution was prepared by diluting the protein stock solution using the 1X assay buffer (b) to 25 pM Tb-Mcl-1 and 8 nM Cy5 Bim peptide.
Using the Acoustic ECHO, 100 nL of 100x test compound(s) were dispensed into individual wells of a white 384-well Perkin Elmer Proxiplate, for a final compound concentration of 1× and final DMSO concentration of 1%. Inhibitor control and neutral control (NC, 100 nL of 100% DMSO) were stamped into columns 23 and 24 of assay plate, respectively. Into each well of the plate was then dispensed 10 μL of the 1X Tb-Mcl-1+Cy5 Bim peptide solution. The plate was centrifuged with a cover plate at 1000 rpm for 1 minute, then incubated for 60 minutes at room temperature with plates covered.
The TR-FRET signal was read on an BMG PHERAStar FSX MicroPlate Reader at room temperature using the HTRF optic module (HTRF: excitation: 337 nm, light source: laser, emission A: 665 nm, emission B: 620 nm, integration start: 60 μs, integration time: […]).
The BMG PHERAStar FSX MicroPlate Reader was used to measure fluorescence intensity at two emission wavelengths—665 nm and 620 nm—and report relative fluorescence units (RFU) for both emissions, as well as a ratio of the emissions (665 nm/620 nm)*10,000. The RFU values were normalized to percent inhibition as follows:
% inhibition=(((NC−IC)−(compound−IC))/(NC−IC))*100
where IC (inhibitor control, low signal)= mean signal of 1X Tb-MCl-1+Cy5 Bim peptide+inhibitor control or 100% inhibition of Mcl-1; NC (neutral control, high signal)= mean signal 1X Tb-MCl-1+Cy5 Bim peptide with DMSO only or 0% inhibition An 11-point dose response curve was generated to determine IC50 values (using GenData) based on the following equation:
Y=Bottom+(Top−Bottom)/(1+10∧((log IC50−X)*HillSlope))
where Y=% inhibition in the presence of X inhibitor concentration; Top=100% inhibition derived from the IC (mean signal of Mcl-1+inhibitor control); Bottom=0% inhibition derived from the NC (mean signal of Mcl-1+DMSO); Hillslope=Hill coefficient; and IC50=concentration of compound with 50% inhibition in relation to top/neutral control (NC).
In this assay [L]=8 nM and Kd=10 nM

[2] = tested on: MOLP-8 human multiple myeloma cell line; assay: Caspase-Glo 3/7 apoptosis induction assay in MOLP-8 cells; type: cell-based; settings: Homo sapiens, MOLP-8, 2 h, caspase-3/7 activity, 2 hours at 37° C.; averaged over all runs on all batches; read-out: MOLP8 AC50
Excerpt: MCL-1 is a regulator of apoptosis and is highly over-expressed in tumor cells that escape cell death. The assay evaluates the cellular potency of small-molecule compounds targeting regulators of the apoptosis pathway, primarily MCL-1, Bfl-1, Bcl-2, and other proteins of the Bcl-2 family. Protein-protein inhibitors disrupting the interaction of anti-apoptotic regulators with BH3-domain proteins initiate apoptosis.
The Caspase-Glo® 3/7 Assay is a luminescent assay that measures caspase-3 and −7 activities in purified enzyme preparations or cultures of adherent or suspension cells. The assay provides a proluminescent caspase-3/7 substrate, which contains the tetrapeptide sequence DEVD. This substrate is cleaved to release aminoluciferin, a substrate of luciferase used in the production of light. Addition of the single Caspase-Glo® 3/7 Reagent in an “add-mix-measure” format results in cell lysis, followed by caspase cleavage of the substrate and generation of a “glow-type” luminescent signal.
This assay uses the MOLP-8 human multiple myeloma cell line, which is sensitive to MCL-1 inhibition.
Cell cultures were maintained between 0.2 and 2.0×10^6 cells/mL. The cells were harvested by collection in 50 mL conical tubes. The cells were then pelleted at 500 g for 5 mins before removing supernatant and resuspension in fresh pre-warmed culture medium. The cells were counted and diluted as needed.
The assay reagent was prepared by transferring the buffer solution to the substrate vial and mixing. The solution may be stored for up to 1 week at 4° C. with negligible loss of signal.
Compounds were delivered in assay-ready plates (Proxiplate) and stored at −20° C. Assays always include 1 reference compound plate containing reference compounds. The plates were spotted with 40 nL of compounds (0.5% DMSO final in cells; serial dilution; […] highest conc. 1/3 dilution, 10 doses, duplicates). The compounds were used at room temperature and 4 μL of pre-warmed media was added to all wells except column 2 and 23. The negative control was prepared by adding 1% DMSO in media. The positive control was prepared by adding the appropriate positive control compound in final concentration of […] in media. The plate was prepared by adding 4 μL negative control to column 23, 4 μL positive control to column 2 and 4 μL cell suspension to all wells in the plate. The plate with cells was then incubated at 37° C. for 2 hours. The assay signal reagent is the Caspase-Glo solution described above, and 8 μL was added to all wells. The plates were then sealed and measured after 30 minutes.
The activity of a test compound was calculated as percent change in apoptosis induction as follows:
% Effect (AC50)=100−(sample-LC)/(HC-LC)*100
% Control=(sample/HC)*100
% Control min=(sample-LC)/(HC-LC)*100

Myeloid Cell Leukemia 1(Mcl-1), sequence (Q07820 whole entry): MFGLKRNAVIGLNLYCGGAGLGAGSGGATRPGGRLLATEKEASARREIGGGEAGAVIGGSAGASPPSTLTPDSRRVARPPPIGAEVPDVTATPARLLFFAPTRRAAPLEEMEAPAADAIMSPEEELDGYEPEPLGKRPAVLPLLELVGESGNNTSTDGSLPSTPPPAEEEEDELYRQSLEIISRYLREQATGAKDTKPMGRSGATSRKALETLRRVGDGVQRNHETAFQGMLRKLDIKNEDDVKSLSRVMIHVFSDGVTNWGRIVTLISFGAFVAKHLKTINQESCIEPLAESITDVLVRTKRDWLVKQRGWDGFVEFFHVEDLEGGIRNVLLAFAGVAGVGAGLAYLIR

Structure (SMILES)	Ki [1] [nM]	AC50 [2] [nM]
C[C@@H]1[C@@H](C)C/C=C(\F)[C@H](C(=O)N(C)C2CCOC2)N2CCC[C@H]2CN2C[C@@]3(CCCc4cc(Cl)ccc43)COc3ccc(cc32)C(=O)NS1(=O)=O (single isomer, unassigned) [Compound 68]	0.041	103
COCCN(CCOC)C(=O)[C@H]1/C(F)=C/C[C@H](C)[C@@H](C)S(=O)(=O)NC(=O)c2ccc3c(c2)N(C[C@@H]2CCCN21)C[C@@]1(CCOc2cc(Cl)ccc21)CO3 [Compound 77]	0.027	144
C[C@@H]1[C@@H](C)C/C=C(\F)[C@H](C(=O)N2CC[C@@H](C#N)C2)N2CCC[C@H]2CN2C[C@@]3(CCCc4cc(Cl)ccc43)COc3ccc(cc32)C(=O)NS1(=O)=O [Compound 47]	0.065	241
C[C@@H]1[C@@H](C)C/C=C(\F)C(CO)(C(=O)N(C)CCN2CCOCC2)N2CCC[C@H]2CN2C[C@@]3(CCCc4cc(Cl)ccc43)COc3ccc(cc32)C(=O)NS1(=O)=O (stereo partly drawn) [Compound 86]	0.032	1600
C[C@@H]1[C@@H](C)C/C=C(\F)[C@H](C(=O)N(C)Cc2nnn(C)n2)N2CCC[C@H]2CN2C[C@@]3(CCCc4cc(Cl)ccc43)COc3ccc(cc32)C(=O)NS1(=O)=O [Compound 67]	0.037	120
C[C@@H]1[C@@H](C)C/C=C(\F)[C@H](C(=O)N(C)CCN2CCOCC2C(F)(F)F)N2CCC[C@H]2CN2C[C@@]3(CCCc4cc(Cl)ccc43)COc3ccc(cc32)C(=O)NS1(=O)=O (mixture of isomers) [Compound 50]	0.146	175
COCCN(CCN1CCOCC1)C(=O)[C@H]1/C(F)=C/C[C@H](C)[C@@H](C)S(=O)(=O)NC(=O)c2ccc3c(c2)N(C[C@@H]2CCCN21)C[C@@]1(CCCc2cc(Cl)ccc21)CO3 [Compound 76]	0.017	36.7
C[C@@H]1[C@@H](C)C/C=C(\F)[C@H](C(=O)N(C)CC2CCOC2)N2CCC[C@H]2CN2C[C@@]3(CCCc4cc(Cl)ccc43)COc3ccc(cc32)C(=O)NS1(=O)=O (single isomer, unassigned) [Compound 56]	0.038	89.4
COCCN(CCOC)C(=O)[C@H]1/C(F)=C/C[C@H](C)[C@@H](C)S(=O)(=O)NC(=O)c2ccc3c(c2)N(C[C@@H]2CCCN21)C[C@@]1(CCCc2cc(Cl)ccc21)CO3 [Compound 39]	0.081	19.7
C[C@@H]1[C@@H](C)C/C=C(\F)[C@H](C(=O)N(C)CCOC2CCOCC2)N2CCC[C@H]2CN2C[C@@]3(CCCc4cc(Cl)ccc43)COc3ccc(cc32)C(=O)NS1(=O)=O [Compound 35]	0.066	90.1
C[C@@H]1[C@@H](C)C/C=C(\F)[C@H](C(=O)N2CCC(F)(F)CC2)N2CCC[C@H]2CN2C[C@@]3(CCCc4cc(Cl)ccc43)COc3ccc(cc32)C(=O)NS1(=O)=O [Compound 43]	0.438	399
C[C@@H]1[C@@H](C)C/C=C(\F)[C@H](C(=O)N(C)CCN2CCOC(C(F)(F)F)C2)N2CCC[C@H]2CN2C[C@@]3(CCCc4cc(Cl)ccc43)COc3ccc(cc32)C(=O)NS1(=O)=O (single isomer, unassigned) [Compound 49]	0.287	366
C[C@@H]1[C@@H](C)C/C=C(\F)[C@H](C(=O)N2CCOC[C@@H]2C)N2CCC[C@H]2CN2C[C@@]3(CCCc4cc(Cl)ccc43)COc3ccc(cc32)C(=O)NS1(=O)=O [Compound 12]	0.069	196
C[C@@H]1[C@@H](C)C/C=C(\F)[C@H](C(=O)N(C)CC2CCCCO2)N2CCC[C@H]2CN2C[C@@]3(CCCc4cc(Cl)ccc43)COc3ccc(cc32)C(=O)NS1(=O)=O (single isomer, unassigned) [Compound 71]	0.066	94.2
COCCOCCN(C)C(=O)[C@H]1/C(F)=C/C[C@H](C)[C@@H](C)S(=O)(=O)NC(=O)c2ccc3c(c2)N(C[C@@H]2CCCN21)C[C@@]1(CCCc2cc(Cl)ccc21)CO3 [Compound 19]	0.045	79.3

From patent publication US20230219906A1, “MACROCYCLIC-2-AMINO-3-FLUORO-BUT-3-ENAMIDES AS INHIBITORS OF MCL-1” (Janssen Pharmaceutica NV, priority 2020, published 2023)
